Assay results taken from PubChem BioAssay (NCI).
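GI50 is the concentration that inhibits growth by half. TGI: concentration producing complete growth inhibition.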

Tests used:
Assay in all cases: NCI-60 cell line screen, 384-well format
NCI-H522 lung = system: NCI-H522 lung
MDA-MB-231 breast = system: MDA-MB-231 breast
SF-268 CNS = system: SF-268 CNS
T-47D breast = system: T-47D breast
MALME-3M melanoma = system: MALME-3M melanoma
OVCAR-5 ovarian = system: OVCAR-5 ovarian
IGROV1 ovarian = system: IGROV1 ovarian
A549 NSCLC = system: A549 NSCLC
SK-OV-3 ovarian = system: SK-OV-3 ovarian
KM12 colon = system: KM12 colon
MDA-MB-435 melanoma = system: MDA-MB-435 melanoma
DU-145 prostate = system: DU-145 prostate
HS 578T breast = system: HS 578T breast
MDA-MB-468 breast = system: MDA-MB-468 breast
ACHN renal = system: ACHN renal
MCF7 breast = system: MCF7 breast
HL-60(TB) leukemia = system: HL-60(TB) leukemia
OVCAR-3 ovarian = system: OVCAR-3 ovarian
COLO 205 colon = system: COLO 205 colon
SN12C renal = system: SN12C renal
BT-549 breast = system: BT-549 breast
NCI-H226 lung = system: NCI-H226 lung
RXF 393 renal = system: RXF 393 renal
HT29 colon = system: HT29 colon
SNB-19 CNS = system: SNB-19 CNS
SK-MEL-28 melanoma = system: SK-MEL-28 melanoma
U251 glioblastoma = system: U251 glioblastoma
PC-3 prostate = system: PC-3 prostate
SW-620 colon = system: SW-620 colon
SR leukemia = system: SR leukemia
HCC-2998 colon = system: HCC-2998 colon
UACC-62 melanoma = system: UACC-62 melanoma
CAKI-1 renal = system: CAKI-1 renal
NCI-H460 NSCLC = system: NCI-H460 NSCLC
A498 renal = system: A498 renal
EKVX NSCLC = system: EKVX NSCLC
SF-295 CNS = system: SF-295 CNS
OVCAR-8 ovarian = system: OVCAR-8 ovarian
MOLT-4 leukemia = system: MOLT-4 leukemia
SF-539 CNS = system: SF-539 CNS
HCT-15 colon = system: HCT-15 colon
M14 melanoma = system: M14 melanoma
UACC-257 melanoma = system: UACC-257 melanoma
RPMI-8226 leukemia = system: RPMI-8226 leukemia
CCRF-CEM leukemia = system: CCRF-CEM leukemia
HOP-92 NSCLC = system: HOP-92 NSCLC
SNB-75 CNS = system: SNB-75 CNS
SK-MEL-2 melanoma = system: SK-MEL-2 melanoma
TK-10 renal = system: TK-10 renal
786-0 renal = system: 786-0 renal
OVCAR-4 ovarian = system: OVCAR-4 ovarian
NCI-H322M lung = system: NCI-H322M lung
SK-MEL-5 melanoma = system: SK-MEL-5 melanoma
NCI/ADR-RES ovarian = system: NCI/ADR-RES ovarian
NCI-H23 lung = system: NCI-H23 lung
HOP-62 NSCLC = system: HOP-62 NSCLC

`OCc1ccc(-c2nn(Cc3ccccc3)c3ccccc23)o1` was tested, and the GI50 (NCI-H522 lung) was 14.6 µM, the TGI (NCI-H522 lung) was 28.2 µM and the GI50 (MDA-MB-231 breast) was 20.3 µM. It also gave a TGI (MDA-MB-231 breast) of 45.8 µM, a GI50 (SF-268 CNS) of 29.8 µM and a TGI (SF-268 CNS) of 69.7 µM. For the same compound, the GI50 (T-47D breast) was 9.48 µM, the TGI (T-47D breast) was 34.1 µM and the GI50 (MALME-3M melanoma) was 20.4 µM. For the same compound, the TGI (MALME-3M melanoma) was 36.4 µM, the GI50 (OVCAR-5 ovarian) was 0.369 µM and the TGI (OVCAR-5 ovarian) was 5.99 µM. For the same compound, the GI50 (IGROV1 ovarian) was 0.424 µM, the TGI (IGROV1 ovarian) was 2.31 µM and the GI50 (A549 NSCLC) was 19.8 µM. For the same compound, the TGI (A549 NSCLC) was 44.9 µM, the GI50 (SK-OV-3 ovarian) was 22.5 µM and the TGI (SK-OV-3 ovarian) was 41.4 µM. The GI50 (KM12 colon) was 18.6 µM, the TGI (KM12 colon) was 34 µM and the GI50 (MDA-MB-435 melanoma) was 20.8 µM. For the same compound, the TGI (MDA-MB-435 melanoma) was 38 µM, the GI50 (DU-145 prostate) was 17.4 µM and the TGI (DU-145 prostate) was 32.8 µM. For the same compound, the GI50 (HS 578T breast) was 20.3 µM, the TGI (HS 578T breast) was 42.8 µM and the GI50 (MDA-MB-468 breast) was 0.181 µM. It also gave a TGI (MDA-MB-468 breast) of 0.328 µM, a GI50 (ACHN renal) of 35 µM and a TGI (ACHN renal) of 81.9 µM. The GI50 (MCF7 breast) was 2.34 µM, the TGI (MCF7 breast) was greater than 100 µM and the GI50 (HL-60(TB) leukemia) was 16.6 µM. It also gave a TGI (HL-60(TB) leukemia) of 30.4 µM, a GI50 (OVCAR-3 ovarian) of 9.85 µM and a TGI (OVCAR-3 ovarian) of 21.9 µM. It also gave a GI50 (COLO 205 colon) of 18.6 µM, a TGI (COLO 205 colon) of 36.5 µM and a GI50 (SN12C renal) of 50.1 µM. It also gave a TGI (SN12C renal) greater than 100 µM, a GI50 (BT-549 breast) of 17.4 µM and a TGI (BT-549 breast) of 31.5 µM. The GI50 (NCI-H226 lung) was 0.166 µM, the TGI (NCI-H226 lung) was 0.314 µM and the GI50 (RXF 393 renal) was 11.4 µM. The TGI (RXF 393 renal) was 27.5 µM, the GI50 (HT29 colon) was 17.9 µM and the TGI (HT29 colon) was 32.3 µM. It also gave a GI50 (SNB-19 CNS) of 46.2 µM, a TGI (SNB-19 CNS) greater than 100 µM and a GI50 (SK-MEL-28 melanoma) of 24 µM. For the same compound, the TGI (SK-MEL-28 melanoma) was 41.4 µM, the GI50 (U251 glioblastoma) was 13.3 µM and the TGI (U251 glioblastoma) was 28.1 µM. For the same compound, the GI50 (PC-3 prostate) was 19.7 µM, the TGI (PC-3 prostate) was 37.3 µM and the GI50 (SW-620 colon) was 20.2 µM. It also gave a TGI (SW-620 colon) of 41.5 µM, a GI50 (SR leukemia) of 3.02 µM and a TGI (SR leukemia) of 7.56 µM. It also gave a GI50 (HCC-2998 colon) of 20.1 µM, a TGI (HCC-2998 colon) of 34.9 µM and a GI50 (UACC-62 melanoma) of 1.97 µM. The TGI (UACC-62 melanoma) was 31.4 µM, the GI50 (CAKI-1 renal) was 0.427 µM and the TGI (CAKI-1 renal) was 3.49 µM. It also gave a GI50 (NCI-H460 NSCLC) of 16.4 µM, a TGI (NCI-H460 NSCLC) of 30.3 µM and a GI50 (A498 renal) of 0.024 µM. The TGI (A498 renal) was 0.0655 µM, the GI50 (EKVX NSCLC) was 27.3 µM and the TGI (EKVX NSCLC) was 68.1 µM. For the same compound, the GI50 (SF-295 CNS) was 46.6 µM, the TGI (SF-295 CNS) was greater than 100 µM and the GI50 (OVCAR-8 ovarian) was 23.5 µM. It also gave a TGI (OVCAR-8 ovarian) of 47 µM, a GI50 (MOLT-4 leukemia) of 12.1 µM and a TGI (MOLT-4 leukemia) of 24.7 µM. The GI50 (SF-539 CNS) was 18.5 µM, the TGI (SF-539 CNS) was 34.6 µM and the GI50 (HCT-15 colon) was 23 µM. The TGI (HCT-15 colon) was 49.6 µM, the GI50 (M14 melanoma) was 21.7 µM and the TGI (M14 melanoma) was 39.7 µM. For the same compound, the GI50 (UACC-257 melanoma) was 1.49 µM, the TGI (UACC-257 melanoma) was 3.15 µM and the GI50 (RPMI-8226 leukemia) was 9.64 µM. It also gave a TGI (RPMI-8226 leukemia) of 21.3 µM, a GI50 (CCRF-CEM leukemia) of 18 µM and a TGI (CCRF-CEM leukemia) of 32.3 µM. For the same compound, the GI50 (HOP-92 NSCLC) was 16 µM, the TGI (HOP-92 NSCLC) was 30.8 µM and the GI50 (SNB-75 CNS) was 17.2 µM. It also gave a TGI (SNB-75 CNS) of 35.1 µM, a GI50 (SK-MEL-2 melanoma) of 36.5 µM and a TGI (SK-MEL-2 melanoma) of 54.5 µM. The GI50 (TK-10 renal) was 0.374 µM, the TGI (TK-10 renal) was 2.29 µM and the GI50 (786-0 renal) was 34.5 µM. The TGI (786-0 renal) was greater than 100 µM, the GI50 (OVCAR-4 ovarian) was 23.5 µM and the TGI (OVCAR-4 ovarian) was 49 µM. It also gave a GI50 (NCI-H322M lung) of 33 µM, a TGI (NCI-H322M lung) greater than 100 µM and a GI50 (SK-MEL-5 melanoma) of 18.3 µM. For the same compound, the TGI (SK-MEL-5 melanoma) was 32.5 µM, the GI50 (NCI/ADR-RES ovarian) was 21 µM and the TGI (NCI/ADR-RES ovarian) was 42.7 µM. It also gave a GI50 (NCI-H23 lung) of 25.3 µM, a TGI (NCI-H23 lung) of 53.1 µM and a GI50 (HOP-62 NSCLC) of 5.79 µM. For the same compound, the TGI (HOP-62 NSCLC) was 26.3 µM.
